Laboratory results as given in patent US20260248938A1, “COMBINATION OF ANTI-CDH6 ANTIBODY-DRUG CONJUGATE AND HIF-2alpha INHIBITOR” (DAIICHI SANKYO COMPANY, LIMITED, priority 2023, published 2026).

What was measured:
[1] = test system: Human kidney cancer cell line 786-O cells; type: in vivo; conditions: 786-O subcutaneous xenograft, nude mice, ADC (1) 1 mg/kg i.v. on Day 0, belzutifan 0.3 mg/kg orally once daily, five times a week for 3 weeks
Experimental: Mouse: Six-week-old female BALB/c nude mice (The Jackson Laboratory Japan, Inc.) were subjected to an experiment.
Measurement and calculation expression: The long diameter and short diameter of each tumor were measured twice a week using electronic digital calipers (CD-15CX, Mitutoyo Corp.), and the volume of the tumor was then calculated. The following expression was used in the calculation.
The anti-CDH6 antibody-drug conjugate (1) was diluted with ABS buffer (10 mM acetate buffer (pH 5.5), 5% sorbitol), and the dilution was intravenously administered at a dose of 10 mL/kg to the tail of each mouse. Belzutifan was suspended in 10% dimethyl sulfoxide, 40% polyethylene glycol 300, 5% Tween-80, and 45% physiological saline, and the suspension was administered orally at a dose of 10 mL/kg.
Human kidney cancer cell line 786-O cells purchased from ATCC (American Type Culture Collection) were suspended in Matrigel Matrix, and the cell suspension was subcutaneously inoculated at a dose of 4×10^6 cells to the right flank region of each female nude mouse. […]
Tumor growth inhibition (TGI) is calculated according to the following expression.
Change from baseline (%) (percentage change of average tumor volume on Day 21 from an average tumor volume on Day 0 as a baseline) was calculated according to the following expression, and is shown in FIG. 15.

[2] = target: T1, Topoisomerase I (Homo sapiens, UniProt P11387); conditions: Ogitani Y. et al., Clinical Cancer Research 2016; cited from earlier work
T1 sequence (P11387 1-765): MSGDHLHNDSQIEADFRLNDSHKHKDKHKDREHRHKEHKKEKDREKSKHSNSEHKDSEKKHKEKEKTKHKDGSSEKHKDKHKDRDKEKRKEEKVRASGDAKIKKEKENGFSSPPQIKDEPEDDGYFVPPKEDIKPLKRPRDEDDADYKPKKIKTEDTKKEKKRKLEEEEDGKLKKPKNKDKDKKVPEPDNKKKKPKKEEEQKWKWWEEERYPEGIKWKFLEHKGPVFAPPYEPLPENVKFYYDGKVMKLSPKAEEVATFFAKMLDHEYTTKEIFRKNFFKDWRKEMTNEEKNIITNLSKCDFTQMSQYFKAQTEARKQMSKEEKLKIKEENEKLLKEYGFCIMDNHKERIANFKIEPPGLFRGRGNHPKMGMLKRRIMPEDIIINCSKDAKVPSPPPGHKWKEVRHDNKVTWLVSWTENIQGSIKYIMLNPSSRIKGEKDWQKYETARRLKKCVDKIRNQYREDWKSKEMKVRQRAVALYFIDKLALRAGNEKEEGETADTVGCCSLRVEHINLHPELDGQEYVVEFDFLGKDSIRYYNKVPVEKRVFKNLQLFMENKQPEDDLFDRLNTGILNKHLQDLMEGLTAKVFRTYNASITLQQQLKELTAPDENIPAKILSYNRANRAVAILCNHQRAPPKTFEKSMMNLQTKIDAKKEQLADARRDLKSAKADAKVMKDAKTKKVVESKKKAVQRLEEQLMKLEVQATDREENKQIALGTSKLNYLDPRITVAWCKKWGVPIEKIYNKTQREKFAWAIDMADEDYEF

Compound	Tumor growth inhibition (TGI) ([1]; Day 21) [%]	Change from baseline (%) (percentage change of average tumor volume on Day 21 from average tumor volume on Day 0) ([1]; Day 21 vs Day 0)	Topoisomerase I inhibitory effect [2]
CS(=O)(=O)c1ccc(Oc2cc(F)cc(C#N)c2)c2c1[C@H](O)[C@H](F)[C@@H]2F [Belzutifan, belzutifan]	29	53	–
CC[C@@]1(O)C(=O)OCc2c1cc1n(c2=O)Cc2c-1nc1cc(F)c(C)c3c1c2[C@@H](NC(=O)CO)CC3 [compound (A)]	–	–	confirmed to have a topoisomerase I inhibitory effect
